Results from US20200085776A1, “Methods of Reducing C-Reactive Protein and/or Treating Cardiovascular Disease” (CARDAX, INC., priority 2018, published 2020).

What was measured:
LDL = test: Fasting lipid panel: LDL, CHASE clinical study; type: in vivo, human; conditions: for LDL V2 to V6 % Change Max / LDL V2 to V6 % Change Mean (SD) / LDL V2 to V6 % Change Median / LDL V2 to V6 % Change Min / LDL V2 to V6 Change Max / LDL V2 to V6 Change Mean (SD) / LDL V2 to V6 Change Median / LDL V2 to V6 Change Min: baseline to Week 12
From the text: (§1) Blood samples shall be obtained under fasted conditions for a lipid panel at V2, V4, V6, V7, and V8. This panel shall include total cholesterol, LDL-C, VLDL-C, HDL-C, and triglycerides. A minimum eight-hour fast (water allowed) is required for the lipid panel.
(§2) Fasting lipid profiles and fasting chemistry panels may be obtained within the visit time window on a day separate from the scheduled office visit, within two days before or after the other study procedures. A minimum of eight hours fasted (water allowed ad lib) is required.
(§3) Table 7M provides the changes in lipid levels (mg/dL) (V2 to V6) for subjects.

HDL = test: Fasting lipid panel: HDL, CHASE clinical study; type: in vivo, human; conditions: for HDL V2 to V6 % Change Max / HDL V2 to V6 % Change Mean (SD) / HDL V2 to V6 % Change Median / HDL V2 to V6 % Change Min / HDL V2 to V6 Change Max / HDL V2 to V6 Change Mean (SD) / HDL V2 to V6 Change Median / HDL V2 to V6 Change Min: baseline to Week 12
From the text: as §1, §2, §3

[1] = Group X 12 mg BID, V2 baseline pre-dose, all subjects
[2] = Group X 12 mg BID, V2 baseline pre-dose, subjects with hyperlipidemia
[3] = Group X 12 mg BID, V6 Week 12, all subjects
[4] = Group X 12 mg BID, V6 Week 12, subjects with hyperlipidemia
[5] = Group X 12 mg BID, all subjects
[6] = Group X 12 mg BID, subjects with hyperlipidemia
[7] = Group Z 48 mg BID, V2 baseline pre-dose, all subjects
[8] = Group Z 48 mg BID, V2 baseline pre-dose, subjects with hyperlipidemia
[9] = Group Z 48 mg BID, V6 Week 12, all subjects
[10] = Group Z 48 mg BID, V6 Week 12, subjects with hyperlipidemia
[11] = Group Z 48 mg BID, all subjects
[12] = Group Z 48 mg BID, subjects with hyperlipidemia

For `CC1=C(/C=C/C(C)=C/C=C/C(C)=C/C=C/C=C(C)/C=C/C=C(C)/C=C/C2=C(C)C(=O)C(O)CC2(C)C)C(C)(C)CC(O)C1=O` (centres unmarked) [Astaxanthin, astaxanthin], the “LDL Max” value (LDL; [1]) was 220.0 mg/dL, the “LDL Mean (SD)” value (LDL; [1]) was 111.9 (61.26) mg/dL and the “LDL Median” value (LDL; [1]) was 112.0 mg/dL. For the same molecule, the “LDL Min” value (LDL; [1]) was 37.00 mg/dL, the “LDL Max” value (LDL; [2]) was 220.0 mg/dL and the “LDL Mean (SD)” value (LDL; [2]) was 99.00 (66.54) mg/dL. For the same molecule, the “LDL Median” value (LDL; [2]) was 73.00 mg/dL, the “LDL Min” value (LDL; [2]) was 37.00 mg/dL and the “LDL Max” value (LDL; [3]) was 236.0 mg/dL. For the same molecule, the “LDL Mean (SD)” value (LDL; [3]) was 109.6 (67.65) mg/dL, the “LDL Median” value (LDL; [3]) was 102.0 mg/dL and the “LDL Min” value (LDL; [3]) was 40.00 mg/dL. The “LDL Max” value (LDL; [4]) was 236.0 mg/dL, the “LDL Mean (SD)” value (LDL; [4]) was 94.57 (70.92) mg/dL and the “LDL Median” value (LDL; [4]) was 60.00 mg/dL. The “LDL Min” value (LDL; [4]) was 40.00 mg/dL, the “LDL V2 to V6 % Change Max” value (LDL; [5]) was 21.62% and the “LDL V2 to V6 % Change Mean (SD)” value (LDL; [5]) was −3.46 (13.64) %. The “LDL V2 to V6 % Change Median” value (LDL; [5]) was −7.02%, the “LDL V2 to V6 % Change Min” value (LDL; [5]) was −21.6% and the “LDL V2 to V6 Change Max” value (LDL; [5]) was 17.00 mg/dL. The “LDL V2 to V6 Change Mean (SD)” value (LDL; [5]) was −2.30 (12.98) mg/dL, the “LDL V2 to V6 Change Median” value (LDL; [5]) was -6.50 mg/dL and the “LDL V2 to V6 Change Min” value (LDL; [5]) was -18.0 mg/dL. The “LDL V2 to V6 % Change Max” value (LDL; [6]) was 21.62%, the “LDL V2 to V6 % Change Mean (SD)” value (LDL; [6]) was −5.19 (15.13) % and the “LDL V2 to V6 % Change Median” value (LDL; [6]) was −10.2%. For the same molecule, the “LDL V2 to V6 % Change Min” value (LDL; [6]) was −21.6%, the “LDL V2 to V6 Change Max” value (LDL; [6]) was 16.00 mg/dL and the “LDL V2 to V6 Change Mean (SD)” value (LDL; [6]) was −4.43 (12.39) mg/dL. For the same molecule, the “LDL V2 to V6 Change Median” value (LDL; [6]) was -11.0 mg/dL, the “LDL V2 to V6 Change Min” value (LDL; [6]) was -18.0 mg/dL and the “LDL Max” value (LDL; [7]) was 206.0 mg/dL. The “LDL Mean (SD)” value (LDL; [7]) was 99.13 (46.59) mg/dL, the “LDL Median” value (LDL; [7]) was 84.00 mg/dL and the “LDL Min” value (LDL; [7]) was 34.00 mg/dL. The “LDL Max” value (LDL; [8]) was 166.0 mg/dL, the “LDL Mean (SD)” value (LDL; [8]) was 89.33 (40.83) mg/dL and the “LDL Median” value (LDL; [8]) was 75.50 mg/dL. The “LDL Min” value (LDL; [8]) was 34.00 mg/dL, the “LDL Max” value (LDL; [9]) was 176.0 mg/dL and the “LDL Mean (SD)” value (LDL; [9]) was 90.31 (37.82) mg/dL. The “LDL Median” value (LDL; [9]) was 81.00 mg/dL, the “LDL Min” value (LDL; [9]) was 49.00 mg/dL and the “LDL Max” value (LDL; [10]) was 176.0 mg/dL. The “LDL Mean (SD)” value (LDL; [10]) was 82.42 (37.25) mg/dL, the “LDL Median” value (LDL; [10]) was 70.00 mg/dL and the “LDL Min” value (LDL; [10]) was 49.00 mg/dL. The “LDL V2 to V6 % Change Max” value (LDL; [11]) was 15.71%, the “LDL V2 to V6 % Change Mean (SD)” value (LDL; [11]) was −14.5 (17.99) % and the “LDL V2 to V6 % Change Median” value (LDL; [11]) was −12.0%. The “LDL V2 to V6 % Change Min” value (LDL; [11]) was −50.0%, the “LDL V2 to V6 Change Max” value (LDL; [11]) was 11.00 mg/dL and the “LDL V2 to V6 Change Mean (SD)” value (LDL; [11]) was −18.9 (24.97) mg/dL. For the same molecule, the “LDL V2 to V6 Change Median” value (LDL; [11]) was -11.0 mg/dL, the “LDL V2 to V6 Change Min” value (LDL; [11]) was -83.0 mg/dL and the “LDL V2 to V6 % Change Max” value (LDL; [12]) was 15.00%. For the same molecule, the “LDL V2 to V6 % Change Mean (SD)” value (LDL; [12]) was −17.4 (18.43) %, the “LDL V2 to V6 % Change Median” value (LDL; [12]) was −12.5% and the “LDL V2 to V6 % Change Min” value (LDL; [12]) was −50.0%. The “LDL V2 to V6 Change Max” value (LDL; [12]) was 9.00 mg/dL, the “LDL V2 to V6 Change Mean (SD)” value (LDL; [12]) was −20.5 (26.25) mg/dL and the “LDL V2 to V6 Change Median” value (LDL; [12]) was -11.0 mg/dL. The “LDL V2 to V6 Change Min” value (LDL; [12]) was -83.0 mg/dL, the “HDL Max” value (HDL; [1]) was 73.00 mg/dL and the “HDL Mean (SD)” value (HDL; [1]) was 46.00 (17.37) mg/dL. For the same molecule, the “HDL Median” value (HDL; [1]) was 42.00 mg/dL, the “HDL Min” value (HDL; [1]) was 24.00 mg/dL and the “HDL Max” value (HDL; [2]) was 67.00 mg/dL. The “HDL Mean (SD)” value (HDL; [2]) was 45.38 (17.08) mg/dL, the “HDL Median” value (HDL; [2]) was 42.50 mg/dL and the “HDL Min” value (HDL; [2]) was 24.00 mg/dL. For the same molecule, the “HDL Max” value (HDL; [3]) was 68.00 mg/dL, the “HDL Mean (SD)” value (HDL; [3]) was 45.27 (13.68) mg/dL and the “HDL Median” value (HDL; [3]) was 42.00 mg/dL. The “HDL Min” value (HDL; [3]) was 29.00 mg/dL, the “HDL Max” value (HDL; [4]) was 65.00 mg/dL and the “HDL Mean (SD)” value (HDL; [4]) was 44.13 (13.24) mg/dL. The “HDL Median” value (HDL; [4]) was 41.00 mg/dL, the “HDL Min” value (HDL; [4]) was 29.00 mg/dL and the “HDL V2 to V6 % Change Max” value (HDL; [5]) was 24.14%. For the same molecule, the “HDL V2 to V6 % Change Mean (SD)” value (HDL; [5]) was 1.78 (14.18) %, the “HDL V2 to V6 % Change Median” value (HDL; [5]) was −2.99% and the “HDL V2 to V6 % Change Min” value (HDL; [5]) was −16.3%. The “HDL V2 to V6 Change Max” value (HDL; [5]) was 7.00 mg/dL, the “HDL V2 to V6 Change Mean (SD)” value (HDL; [5]) was −0.73 (5.75) mg/dL and the “HDL V2 to V6 Change Median” value (HDL; [5]) was -1.00 mg/dL. For the same molecule, the “HDL V2 to V6 Change Min” value (HDL; [5]) was -9.00 mg/dL, the “HDL V2 to V6 % Change Max” value (HDL; [6]) was 24.14% and the “HDL V2 to V6 % Change Mean (SD)” value (HDL; [6]) was 0.85 (15.61) %. For the same molecule, the “HDL V2 to V6 % Change Median” value (HDL; [6]) was −3.06%, the “HDL V2 to V6 % Change Min” value (HDL; [6]) was −16.3% and the “HDL V2 to V6 Change Max” value (HDL; [6]) was 7.00 mg/dL. The “HDL V2 to V6 Change Mean (SD)” value (HDL; [6]) was −1.25 (6.11) mg/dL, the “HDL V2 to V6 Change Median” value (HDL; [6]) was -1.50 mg/dL and the “HDL V2 to V6 Change Min” value (HDL; [6]) was -9.00 mg/dL. For the same molecule, the “HDL Max” value (HDL; [7]) was 77.00 mg/dL, the “HDL Mean (SD)” value (HDL; [7]) was 47.79 (14.77) mg/dL and the “HDL Median” value (HDL; [7]) was 40.00 mg/dL. For the same molecule, the “HDL Min” value (HDL; [7]) was 29.00 mg/dL, the “HDL Max” value (HDL; [8]) was 77.00 mg/dL and the “HDL Mean (SD)” value (HDL; [8]) was 44.93 (13.59) mg/dL. For the same molecule, the “HDL Median” value (HDL; [8]) was 40.00 mg/dL, the “HDL Min” value (HDL; [8]) was 29.00 mg/dL and the “HDL Max” value (HDL; [9]) was 75.00 mg/dL. For the same molecule, the “HDL Mean (SD)” value (HDL; [9]) was 47.11 (14.59) mg/dL, the “HDL Median” value (HDL; [9]) was 41.00 mg/dL and the “HDL Min” value (HDL; [9]) was 30.00 mg/dL. The “HDL Max” value (HDL; [10]) was 72.00 mg/dL, the “HDL Mean (SD)” value (HDL; [10]) was 44.71 (13.00) mg/dL and the “HDL Median” value (HDL; [10]) was 39.00 mg/dL. For the same molecule, the “HDL Min” value (HDL; [10]) was 32.00 mg/dL, the “HDL V2 to V6 % Change Max” value (HDL; [11]) was 24.53% and the “HDL V2 to V6 % Change Mean (SD)” value (HDL; [11]) was −3.43 (10.55) %. The “HDL V2 to V6 % Change Median” value (HDL; [11]) was −5.80%, the “HDL V2 to V6 % Change Min” value (HDL; [11]) was −22.7% and the “HDL V2 to V6 Change Max” value (HDL; [11]) was 13.00 mg/dL. The “HDL V2 to V6 Change Mean (SD)” value (HDL; [11]) was −1.72 (5.19) mg/dL, the “HDL V2 to V6 Change Median” value (HDL; [11]) was -3.00 mg/dL and the “HDL V2 to V6 Change Min” value (HDL; [11]) was -10.0 mg/dL. For the same molecule, the “HDL V2 to V6 % Change Max” value (HDL; [12]) was 24.53%, the “HDL V2 to V6 % Change Mean (SD)” value (HDL; [12]) was −2.50 (11.26) % and the “HDL V2 to V6 % Change Median” value (HDL; [12]) was −4.04%. The “HDL V2 to V6 % Change Min” value (HDL; [12]) was −22.7%, the “HDL V2 to V6 Change Max” value (HDL; [12]) was 13.00 mg/dL and the “HDL V2 to V6 Change Mean (SD)” value (HDL; [12]) was −1.36 (5.64) mg/dL. For the same molecule, the “HDL V2 to V6 Change Median” value (HDL; [12]) was -2.00 mg/dL and the “HDL V2 to V6 Change Min” value (HDL; [12]) was -10.0 mg/dL.
